This is an account of results in patent US20130324412A1, “N-ALKOXYAMIDES OF 6-(SUBSTITUTED PHENYL)-4-AMINOPICOLINATES AND 2-(SUBSTITUTED PHENYL)-6-AMINO-4-PYRIMIDINECARBOXYLATES AND THEIR USE AS SELECTIVE HERBICIDES FOR CROPS” (DOW AGROSCIENCES LLC, priority 2009, published 2013).

Holding throughout (assay type): in vivo
Assay [1] concerns sicklepod (Casia obtusifolia). Put plainly: Postemergence herbicidal activity in corn, sicklepod. Particulars: corn test, visual rating after 21 d, probit analysis, dose to kill or control 80 percent. The method, then:
(§1) Seeds of corn and the desired weed species were planted in Sun Gro MetroMix 360 planting mixture, which typically has a pH of 6.0 to 6.8 and an organic matter content of about 30 percent, in plastic pots with a surface area of 95 cm^2. When required to ensure good germination and healthy plants, a fungicide treatment and/or other chemical or physical treatment was applied. The plants were grown for 7-21 d in a greenhouse with an approximate 15-h photoperiod which was maintained at about 23-29° C. during the day and 22-28° C. during the night. Nutrients and water were added on a regular basis and supplemental lighting was provided with overhead metal halide 1000-Watt lamps as necessary. The corn plants were utilized for testing when they reached the second true leaf stage. The weed species were utilized at the first or second true leaf stage.
(§2) A weighed amount, determined by the highest rate to be tested, of each test compound was dissolved in 4 mL of a 97:3 v/v mixture of acetone and DMSO to obtain concentrated stock solutions. […] The concentrated stock solutions obtained were diluted with 20 mL of an aqueous mixture containing acetone, water, isopropyl alcohol, DMSO, Atplus 411F crop oil concentrate, and Triton X-155 surfactant in a 48.5:39:10:1.5:1.0:0.02 v/v ratio to obtain spray solutions containing the highest application rates. […]
(§3) The treated plants and control plants were placed in a greenhouse as described above and watered by sub-irrigation to prevent wash-off of the test compounds. After 21 d, the condition of the test plants as compared with that of the untreated plants was determined visually and scored on a scale of 0 to 100 percent where 0 corresponds to no injury and 100 corresponds to complete kill. […]

Assay [2] deals with wild buckwheat (Polygonum convululus). Put plainly: Postemergence herbicidal activity in corn, wild buckwheat. The settings on record: corn test, visual rating after 21 d, probit analysis, dose to kill or control 80 percent. The procedure:
as §1, §2, §3

Assay [3] concerns lambsquarters (Chenopodium album). The experiment in a line: General postemergence herbicidal activity, lambsquarters. Particulars: post-emergence, 336 h, 70 g ai/ha, postemergence, after 14 d, 0 = no injury, 100 = complete kill, read-out: CHEAL % Visual Injury. A digest of the protocol:
(§4)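 Greenhouse plants at first to second true leaf stage sprayed overhead at 187 L/ha in acetone/DMSO with crop oil concentrate and surfactant, at a high rate plus ½× to 1/16× serial dilutions. Injury rated visually after 14 d against solvent-blank controls, 0 (none) to 100% (complete kill).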

The subject of assay [4] is pigweed, redroot (Amaranthus retroflexus). The experiment in a line: Postemergence herbicidal activity in corn, redroot pigweed. Particulars: corn test, visual rating after 21 d, probit analysis, dose to kill or control 80 percent. The procedure:
as §1, §2, §3

Assay [5] has as its system wild buckwheat (Polygonum convululus). The experiment in a line: General postemergence herbicidal activity, wild buckwheat. Particulars: post-emergence, 336 h, 70 g ai/ha, postemergence, after 14 d, 0 = no injury, 100 = complete kill, read-out: POLCO % Visual Injury. A digest of the protocol: as §4
In assay [6] the test system is corn (Zea mays). The experiment in a line: General postemergence herbicidal activity, corn. Particulars: post-emergence, 336 h, 70 g ai/ha, postemergence, after 14 d, 0 = no injury, 100 = complete kill, read-out: ZEAMX % Visual Injury. An outline of the steps:
as §4

In the case of `COc1c(Cl)ccc(-c2cc(N)c(Cl)c(C(=O)NOCC(C)C)n2)c1F` [Compound 1, 4-amino-3-chloro-6-(4-chloro-2-fluoro-3-methoxyphenyl)-N-(2-methylpropoxy)picolinamide], the “CASOB GR80” value in assay [1] is recorded as 8.75 g ai/ha. Further, in assay [2], the “POLCO GR80” value is below 4 g ai/ha. For the same compound, the pest or weed control at 70 g/ha in assay [3] and in assay [5] was 100% throughout. In assay [4], the “AMARE GR80” value is on record as 14 g ai/ha. The plant injury at 70 g/ha in assay [6] amounted to 0%.

Turning to `CONC(=O)c1nc(-c2ccc(Cl)c(OC)c2F)cc(N)c1Cl` [Compound 2, 4-Amino-3-chloro-6-(4-chloro-2-fluoro-3-methoxyphenyl)-N-methoxypicolinamide], the “CASOB GR80” value in assay [1] is listed as 17 g ai/ha. In addition, the “POLCO GR80” value in assay [2] is listed as 6 g ai/ha. Further, the pest or weed control at 70 g/ha in assay [3] and in assay [5] was 100% throughout. The “AMARE GR80” value in assay [4] is reported as below 4 g ai/ha. Besides, in assay [6], the plant injury at 70 g/ha was determined as 10%.
